Source: article PMC5394417, “Investigating the molecular mechanism of positive and negative allosteric modulators in the calcium-sensing receptor dimer” (Scientific Reports, 2017)

Biological target: T1, HA-F821A CaSR mutant (Rattus norvegicus, UniProt P48442, F821A)
T1 construct: mGluR5 signal peptide (N); expressed in transfected cells; host or cells: HEK293T
T1 sequence (P48442 20-1079 F821A): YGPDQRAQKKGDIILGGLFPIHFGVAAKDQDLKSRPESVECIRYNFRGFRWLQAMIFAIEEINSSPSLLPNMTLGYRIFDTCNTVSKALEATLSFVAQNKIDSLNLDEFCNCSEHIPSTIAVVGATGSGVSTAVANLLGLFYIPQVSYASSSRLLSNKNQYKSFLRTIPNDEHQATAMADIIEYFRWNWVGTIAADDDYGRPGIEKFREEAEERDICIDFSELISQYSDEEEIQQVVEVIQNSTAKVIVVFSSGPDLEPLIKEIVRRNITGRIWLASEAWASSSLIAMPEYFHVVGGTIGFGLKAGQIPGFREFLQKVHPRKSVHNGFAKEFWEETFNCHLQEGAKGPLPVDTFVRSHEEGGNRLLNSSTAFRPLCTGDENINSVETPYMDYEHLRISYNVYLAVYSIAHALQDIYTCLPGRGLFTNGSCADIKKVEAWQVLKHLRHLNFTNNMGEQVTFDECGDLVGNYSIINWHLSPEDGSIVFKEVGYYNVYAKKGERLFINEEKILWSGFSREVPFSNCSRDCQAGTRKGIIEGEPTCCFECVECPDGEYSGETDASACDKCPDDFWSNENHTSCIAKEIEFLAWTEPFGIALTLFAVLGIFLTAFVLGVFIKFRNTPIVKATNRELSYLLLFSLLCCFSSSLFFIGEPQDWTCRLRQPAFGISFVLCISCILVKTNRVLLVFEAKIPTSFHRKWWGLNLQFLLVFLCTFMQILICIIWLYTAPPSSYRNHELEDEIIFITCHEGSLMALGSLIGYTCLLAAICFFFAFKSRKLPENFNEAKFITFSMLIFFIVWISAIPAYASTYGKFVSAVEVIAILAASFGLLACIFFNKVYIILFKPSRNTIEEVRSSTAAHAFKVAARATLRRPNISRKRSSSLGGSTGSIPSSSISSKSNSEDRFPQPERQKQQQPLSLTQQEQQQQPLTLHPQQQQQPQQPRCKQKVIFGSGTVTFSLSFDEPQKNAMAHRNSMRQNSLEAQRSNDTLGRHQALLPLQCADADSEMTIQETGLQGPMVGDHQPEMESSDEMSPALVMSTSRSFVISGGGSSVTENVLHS
Test: IP-One assay, HEK293T transiently transfected
Type: cell-based

[Ca+2] [Ca^2+]
EC50 (Ca^2+ alone): 2.35 mM | pEC50 ± S.E.M. (Ca^2+ alone): 2.63 ± 0.02 | Max ± S.E.M. (Ca^2+ alone, normalized to maximum response of WT CaSR): 87 ± 4.3% | EC50 (Ca^2+ with 1 μM NPS R-568): 1.92 mM | pEC50 ± S.E.M. (Ca^2+ with 1 μM NPS R-568): 2.72 ± 0.01 | Max ± S.E.M. (Ca^2+ with 1 μM NPS R-568, normalized to maximum response with Ca^2+ alone for the construct): 110 ± 14% | EC50 (Ca^2+ with 5 μM NPS 2143): 5.72 mM | pEC50 ± S.E.M. (Ca^2+ with 5 μM NPS 2143): 2.25 ± 0.05 | Max ± S.E.M. (Ca^2+ with 5 μM NPS 2143, normalized to maximum response with Ca^2+ alone for the construct): 51 ± 8.0%
